As a reminder, the IC50 is the concentration that gives 50% inhibition. The low end stands for greater potency, the high end for weaker potency.

Where no end group is shown, it is not given here.

One test deals with B16-F10 cells. The experiment in a line: Flow cytometric analysis of cell cycle. In kind it is cell-based, murine. The settings on record: 48 h. How it is done: Cells were starved for 24 h, and treated with 30 ng/ml bFGF or 30 ng/mL bFGF plus serially-diluted peptides for 48 h. After fixing in 70% ice-cold ethanol for 30 min at 4 °C and washing with PBS for 3 times, cells were stained with propidium iodide (PI) in the dark at room temperature for 30 min. The ModFit DNA analysis program was applied to analyze the percentages of cells at various phases of the cell cycle.
On the technique in general: In flow cytometry, cells or beads pass a laser one at a time.

Test [1] has as its system bFGF receptors on Balb/c 3T3 cells. The settings on record: range of values previously published; cited from earlier work.
Test [2] has the same test system. Description: Receptor binding assay (125I-bFGF competition, Scatchard analysis). How it is done:
The recombinant bFGF was iodinated by the modified chloramine-T method. Briefly, bFGF (5 μg/50 μ1 in 0.5 M phosphate buffer, pH 7.4) was incubated with chloramine-T (20 μg/10 µl of phosphate buffer) and ^125I-labeled sodium (1.12 mCi/10 μ1) at room temperature for 55 sec. The reaction was immediately terminated by the addition of sodium metabisulflte (250 μg/200 μl) and 1% potassium iodide (100 μl), and the mixture was applied to a Sephadex G-50 column (1×20 cm) preequilibrated in 50 mM phosphate buffer containing 0.1% BSA to separate ^125I-labeled bFGF from free ^125I.
Confluent Balb/c 3T3 cells (0.5×10^6/well) were incubated with binding buffer (DMEM, 20mM HEPES, pH7.4) containing ^125I-bFGF (50000 cpm) and different concentrations of unlabeled ligand (bFGF or the synthetic peptide) for 2.5 h at 4°C. For nonspecific binding, cells were incubated with ^125I-bFGF (50000 cpm) and an excess of unlabeled bFGF (200 nM). The cells were washed with (3 × 1 ml) cold PBS (50 mM, PH7.4), and lysed with 1% Triton X-100 (500 μl). The radioactivity of the extracts was measured in a γ counter. Specific binding was determined as the difference between total and nonspecific binding, and data were analyzed by Scatchard analysis.

Test [3] relates to B16-F10 murine melanoma cells. The settings on record: 48 h, 10 nM.
Experimental: Cells were seeded in 96-well plates (5 × 10^3 cells/well) in DMEM containing 10% FBS. After incubation at 37°C for 24 h, the culture medium was replaced by DMEM containing 0.4% FBS to starve the cells for 24 h. The medium was then replaced by DMEM containing 30 ng/ml bFGF, or 30 ng/mL bFGF plus peptide at various concentrations. After culturing for 48 h, the number of viable cells was determined by the methylthiazoletetrazolium (MTT) method as previously described [5].
The target of test [4] is T1, bFGF receptors (FGFR1c/FGFR2c on Balb/c 3T3 cells) (Mus musculus, UniProt P16092).
T1 chain: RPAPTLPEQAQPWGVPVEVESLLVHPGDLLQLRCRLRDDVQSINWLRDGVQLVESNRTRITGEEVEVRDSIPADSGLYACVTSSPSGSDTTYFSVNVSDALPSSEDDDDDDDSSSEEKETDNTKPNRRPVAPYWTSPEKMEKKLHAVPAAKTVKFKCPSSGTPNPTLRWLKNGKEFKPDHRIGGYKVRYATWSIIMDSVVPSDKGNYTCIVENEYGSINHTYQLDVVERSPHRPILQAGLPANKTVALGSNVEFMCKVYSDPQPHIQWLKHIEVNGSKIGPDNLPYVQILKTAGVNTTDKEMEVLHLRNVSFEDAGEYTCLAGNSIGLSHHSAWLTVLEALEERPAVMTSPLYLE
The experiment in a line: 125I-bFGF competition binding on cells.

The mark [5] stands for this setting: 30 ng/ml bFGF alone, mean ± SD of 3 independent experiments.

For the molecule basic fibroblast growth factor [bFGF], in the test on B16-F10 cells (setting [5]), the G0/G1 is reported as 26.45 ± 1.01% and the G2/M stood at 7.46 ± 0.56%. The S with B16-F10 cells (30 ng/ml bFGF alone, mean ± SD of 3 independent experiments, * P<0.01 vs control group) is on record as 66.09 ± 1.22%. In the test with B16-F10 cells (bFGF alone, 30 ng/ml), the “effect of bFGF on cell cycle” value was “significantly increased the percentage of S phase cells, and decreased the ratio of G0/G1 phase cells”. The “receptor sites per cell of high affinity bFGF receptors, previously published” value in test [1] is reported as 0.2-10 ×10^4 sites/cell.
For the molecule “^125I-bFGF: recombinant bFGF iodinated by the modified chloramine-T method”, the “receptor population, 125I-bFGF binding, without P9” value in test [2] is “approximately 9,600 sites/cell”.
Turning to LSPPRYPGGGS-NH2 [P9 peptides], the “inhibition of bFGF-stimulated proliferation” value in test [3] was ~90%.

B1: P9 peptide (peptide)
chain: LSPPRYPGGGS-NH2
Regarding B1, the IC50 in test [4] was ~2.5 nM.

The values are drawn from publication PMC3858566, “Identification of a novel peptide that blocks basic fibroblast growth factor-mediated cell proliferation” (Oncotarget, 2013).
